Results on one molecule are retold here after PMC11109052, “Metabolism characterization and toxicity of N-hydap, a marine candidate drug for lung cancer therapy by LC–MS method” (Natural Products and Bioprospecting, 2024).

Entries after “also recorded” stand apart in the source; their conditions may differ.

For one data set, the target named is T1, UGT1A3 (Homo sapiens, UniProt P35503).
T1 construct: purchased Cypex (Scotland, UK)
In words: Incubation with recombinant human UGT isoforms: UGT1A3. As to conditions: recombinant UGT 2 μg/mL. The class given is in vitro ADME. As to the method:
Incubation of N-hydap (2.5 μM) with eight recombinant human CYP enzymes (CYP1A2, CYP2B6, CYP2C9, CYP2C19, CYP2D6, CYP3A4, CYP4A11 and CYP4F2) at three enzyme concentrations (2, 4, and 20 μg/mL) was conducted following the same procedure as described above for microsomes. Subsequently, incubation with N-hydap (1, 2.5, and 6 μM) and twelve recombinant human UGT isoforms (UGT1A1, UGT1A3, UGT1A4, UGT1A6, UGT1A7, UGT1A8, UGT1A9, UGT1A10, UGT2B4, UGT2B7, UGT2B15 and UGT2B17) was performed, with the enzyme concentration used at 2 μg/mL. All reactions were carried out in triplicate.

For a further data set, the system named is HLMs. In words: Kinetics of N-hydap glucuronidation in HLMs. As to conditions: HLM. In kind it is in vitro ADME, human. As to the method: (§1) Various microsomes including HLMs, HKMs, HIMs, RLMs, RKMs, MLMs and MKMs were involved in CYP and UGT reactions of N-hydap. A typical CYP incubation mixture included 0.5 mg/mL microsomes protein, 3.3 mM glucose-6-phosphate, 3.3 mM MgCl2, 0.4 U/mL glucose-6-phosphate dehydrogenase, and N-hydap (1, 2.5, or 10 μM) in the 50 mM potassium phosphate buffer (KPI, pH 7.4). The incubation mixture was preincubated at 37 °C for 5 min, and the reaction was started by adding NADP to form a NADPH-regenerating system. Simultaneously, the classic UGT reaction system consisted of 50 mM KPI, 5 mM MgCl2, 0.5 mg/mL microsomes, 0.125 mg/mL alamethicin, and 5.25 mg/mL saccharolactone. The reaction was initiated after supplying UDPGA. The CYP and UGT mixtures were incubated at 37 °C in a shaking water bath (80 rpm) for 1.5 h to enhance metabolite formation. To terminate the reaction, an ice-cold solution of Tes (50 ng/mL, dissolved in methanol and used as an internal standard) was added to half of the mixture volume. […]
(§2) The substrate concentrations used for HLMs were 0.05, 0.5, 2, 2.5, 5, 10, 25, 50, and 100 μM. […] The rates of N-hydap-G by enzymes were expressed as nmol/mg/min, representing the amount of metabolites formed per minute per milligram of protein. Kinetic parameters were determined by analyzing the Eadie–Hofstee plots. […]

A further data set has as its system HKMs. In words: Kinetics of N-hydap glucuronidation in HKMs. In kind it is in vitro ADME, human. As to conditions: HKM. On the procedure: as §1, §2
Another data set deals with MLMs. In words: Kinetics of N-hydap glucuronidation in MLMs. In kind it is in vitro ADME, mouse. The settings on record: MLM. On the procedure: In this study, the rats were executed by drawing blood from the abdominal aorta and mice were sacrificed with cervical dislocation before the liver and kidneys were excised. The liver and kidneys were removed, and washed with chilled cleansing solution (contains 8 mM KH2PO4, 5.6 mM EDTA·K2·2H2O, 1 mM DTT and 229.6 μM PMSF), homogenized in a tissue homogenate buffer with a pH of 7.4, (consisting of […], 8 mM K2HPO4, 250 mM sucrose, 1 mM EDTA·K2·2H2O and 229.6 μM PMSF). Subsequently, the homogenate was centrifuged at 10,400 rpm at 4 °C for 15 min, and the supernatant was then centrifuged at 35,000 rpm at 4 °C for 60 min. A 250 mM sucrose buffer was added to the pellet to reconstitute and the resuspension was stored at − 80 °C until use. Microsome protein concentrations were measured by Omni-Easy™ Instant BCA Protein Assay Kit.
Various microsomes including HLMs, HKMs, HIMs, RLMs, RKMs, MLMs and MKMs were involved in CYP and UGT reactions of N-hydap. […]
as §2

A further data set relates to normal wild-type mice. Briefly: Toxicity of 7-day gavage in normal wild-type mice.
Setting [1] is: mice, 2, 5, 10 mg/kg gavage, 7 days.

T1 sequence (P35503 29-534): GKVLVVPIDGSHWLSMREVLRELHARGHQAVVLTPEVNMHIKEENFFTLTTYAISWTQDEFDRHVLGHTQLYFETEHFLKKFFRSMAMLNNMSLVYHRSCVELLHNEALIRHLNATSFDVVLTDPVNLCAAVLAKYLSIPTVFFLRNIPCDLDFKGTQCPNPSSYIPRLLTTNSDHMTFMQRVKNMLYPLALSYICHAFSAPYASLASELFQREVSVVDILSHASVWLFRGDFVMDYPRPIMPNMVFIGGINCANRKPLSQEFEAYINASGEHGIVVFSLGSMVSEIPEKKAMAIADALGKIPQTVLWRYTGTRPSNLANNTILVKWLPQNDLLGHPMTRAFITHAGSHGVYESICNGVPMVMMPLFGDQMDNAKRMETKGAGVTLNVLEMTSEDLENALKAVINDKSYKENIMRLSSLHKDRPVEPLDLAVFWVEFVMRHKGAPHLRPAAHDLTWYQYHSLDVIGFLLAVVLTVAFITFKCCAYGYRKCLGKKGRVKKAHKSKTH
Description for normal wild-type mice: During the continuous gavage administration of N-hydap (2, 5, 10 mg/kg) to mice, their body weight was monitored daily and the mice’s activity and mental state were closely observed. […] To assess the extent of injury in the heart, liver, and kidneys, cardiac LDH, plasma ALT, AST, and Cr were measured as biochemical markers (Fig. 7B–D). Additionally, blood routines were examined, including RBC (10^12/L), HCT (%), HGB (g/dL), WBC (10^9/L), PLT (10^9/L), and Lymphocytes (%), which were used as indicators to evaluate spleen toxicity (Fig. 7E). […] To investigate this further, HE staining on tissue sections was performed from both the control group and the highest dose group (10 mg/kg).
Fig. 7 Normal wild-type mice were administered by N-hydap (2, 5, 10 mg/kg) gavage for 7 days. A Changes in body weight in mice. B Cardiac LDH level. C, D Plasma ALT, AST and Cr levels. E Blood routine indicators including RBC, HCT, HGB, WBC, PLT and Lymphocytes. F H&E staining of sections of primary organs, original magnification ×200 (mean ± S.D, n = 5–6/group). ns, no significance, were compared with control group.

Broadly, the Km is the concentration of substrate that gives half-maximal velocity. Turning to `CC1CCC2C(C=CC(C)C2C(=O)c2c(O)c(C3(O)CCC(O)C4OC43)cn(O)c2=O)C1` (stereo not shown) [N-hydap, N-Hydroxyapiosporamide], the “share of N-hydap glucuronidation by UGT1A3” value on UGT1A3 is listed as “over 80%”. Further, the Km in the data set with HLMs is 116 µM; with HKMs, 240 µM; with MLMs, 263 µM. In addition, in the data set on normal wild-type mice (Table 4 experimental column), the “Toxicity LD50, experimental results” value is on record as “High security”. Moreover, in the data set with normal wild-type mice (setting [1]), the behavior during gavage result is recorded as “did not exhibit any abnormal behavior”. Besides, in the data set on normal wild-type mice (setting [1]), the “biochemical markers (cardiac LDH, plasma ALT, AST, Cr) and blood routine indicators vs control” value was “did not show any significant differences”. The body weight entry with normal wild-type mice (setting [1]) is recorded as “No significant changes”. Moreover, the “HE staining of important tissues and organs” value with normal wild-type mice (mice, highest dose group 10 mg/kg, 7 days) was “maintained their structural integrity”. The “toxicity of continuous gavage at normal doses” value with normal wild-type mice (normal wild mice, 2, 5, 10 mg/kg, 7 days) was “did not result in significant toxicity; also recorded: did not exhibit any toxicity”.
